Where two headings read alike, the source gives them in different places.
Columns and labels:
[1] = DLS size determination of 500 ppm RA solutions with gum Arabic (Example 5, FIGS. 7-9); type: physicochemical; details: conclusion of Example 5
Description: This example was for size determination.
The solutions noted below were filtered with a 0.45 μm membrane.
Measurements were obtained by DLS after the solution was filtered and allowed to equilibrate for six hours.
According to FIGS. 7 through 9, it was determined that: […]

[2] = Saturation of Reb A aqueous solution (Example 3); type: physicochemical; details: water
Description: Three concentrations of Reb A aqueous solutions were prepared: 500 ppm, 0.8% and 2.0%.
The 0.8% (by weight) is saturated.
The 2.0% (by weight) is over-saturated. After preparation, Reb A will continue to precipitate slowly and finally result in a 0.8% solution.

[3] = cited from earlier work; for taste in sensory tests: 100% purity

C=C1C[C@@]23CC[C@H]4[C@@](C)(CCC[C@@]4(C)C(=O)O[C@@H]4O[C@H](CO)[C@@H](O)[C@H](O)[C@H]4O)[C@@H]2CC[C@]1(O[C@@H]1O[C@H](CO)[C@@H](O)[C@H](O[C@@H]2O[C@H](CO)[C@@H](O)[C@H](O)[C@H]2O)[C@H]1O[C@@H]1O[C@H](CO)[C@@H](O)[C@H](O)[C@H]1O)C3 [Reb A, Rebaudioside A]
size of micelles that the molecules tend to form in solution [1]: above 1000 nm | stability of the solution (aggregation) [1]: unstable | concentration of the saturated aqueous solution [2]: 0.8 % (by weight) | taste in sensory tests ([3]; 200 ppm aqueous solution): cannot bring a perfect taste close to sugar | taste in sensory tests ([3]; higher concentrations, for example 500 ppm): bitterness and aftertaste issues appear strongly | taste quality (increased sweetness and decreased bitterness) ([3]; Phytochemistry 68, 2007, 1855-1863): better than stevioside
